For this assay, the target named is immobilized enzyme CAL-A and free enzyme CAL-A (Moesziomyces aphidis, UniProt W3VKA4). The assay is described as follows: Influence of organic solvents, metal ions and surfactants on enzyme activity. The settings on record: for effect of organic solvent on hydrolysis activity: 10% (v/v) and 20% (v/v) solvent. It counts as biochemical, Candida antarctica. An excerpt: Add 10 mmol/L, 5 mmol/L, l0 mmol/L K+, Al^3+, Fe^2+, Fe3+, Ca^2+, Mg^2+, Mn^2+, Zn^2+, Ba^2+, Na^2+ and other 10 kinds of metal ion solutions to measure the enzyme activity respectively, take the activity of the untreated immobilized enzyme CAL-A and free enzyme CAL-A enzyme as 100%, analyze the influence of metal ions on the enzyme activity. (FIG. 4-G, FIG. 4-H, FIG. 4-I).
immobilized enzyme CAL-A and free enzyme CAL-A, sequence (W3VKA4 22-462): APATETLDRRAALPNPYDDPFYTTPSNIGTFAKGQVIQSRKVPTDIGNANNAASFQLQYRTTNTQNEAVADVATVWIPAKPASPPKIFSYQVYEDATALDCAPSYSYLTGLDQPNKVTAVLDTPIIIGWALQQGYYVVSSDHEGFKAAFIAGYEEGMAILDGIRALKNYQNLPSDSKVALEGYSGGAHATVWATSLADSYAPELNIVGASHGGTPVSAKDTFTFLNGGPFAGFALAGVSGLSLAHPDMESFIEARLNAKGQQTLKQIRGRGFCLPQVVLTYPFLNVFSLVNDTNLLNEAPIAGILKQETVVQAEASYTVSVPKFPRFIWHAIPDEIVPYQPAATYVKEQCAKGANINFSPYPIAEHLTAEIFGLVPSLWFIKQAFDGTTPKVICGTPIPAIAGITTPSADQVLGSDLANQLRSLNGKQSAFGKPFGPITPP
Add 10% (v/v) and 20% (v/v) methanol, ethanol, acetonitrile, acetone, n-butanol, isooctane, isopropanol, n-hexane, n-heptane, petroleum ether, tert-butyl Alcohol, glacial acetic acid, ethyl acetate and other 13 kinds of organic solvent solutions respectively, measure the enzyme activity. Take the untreated immobilized enzyme CAL-A and free enzyme CAL-A enzyme activity as 100%, analyze the influence of organic solvent on the enzyme activity.
Add 0.0001%, 0.0005%, 0.001% SDS, TritionX-100, Tween-80, Tween-20, EDTA and other 5 kinds of surfactant solutions respectively, measure the enzyme activity, take the untreated immobilized enzyme CAL-A and free enzyme CAL-A enzyme activity as 100%, analyze the influence of surfactant on enzyme activity.

From US20230183758A1, “METHOD FOR PREPARING DIACYLGLYCEROL BY IMMOBILIZED SN-2 LIPASE” (Shandong Academy of Agricultural Sciences, priority 2021, published 2023) come the findings set out here.

Entries after “also recorded” stand apart in the source; their conditions may differ.

On to `O=C(O)CN(CCN(CC(=O)O)CC(=O)O)CC(=O)O` [EDTA], for which the “effect of surfactant on lipase activity” value reads like this: (0.0005% EDTA) “activating effect; also recorded: activate”; (0.001% EDTA) “inhibitory effect; also recorded: inhibit”.
As for `O=S(=O)([O-])[O-].[Fe+2]` [Fe^2+], for the setting “metal ion solutions 1, 5, 10 mmol/L, untreated enzyme = 100%”, the “effect of metal ion on hydrolysis of immobilized enzymes” value is given as “activate”.
`CC(=O)O` [acetic acid]: where the note is “untreated enzyme = 100%”, the “effect of organic solvent on hydrolysis activity” value (shortened to “effect of organic solvent”) is on record as “significantly inhibit; also recorded: obvious inhibitory effects”.
Turning to `CCO` [ethanol], the “effect of organic solvent” value (untreated enzyme = 100%) was “significantly inhibit; also recorded: obvious inhibitory effects”.
As for `CCOC(C)=O` [ethyl acetate], the “effect of organic solvent” value (untreated enzyme = 100%) is given as “activate; also recorded: activation effects”.
Take `CCCCCC` [n-hexane]: where the note is “untreated enzyme = 100%”, the “effect of organic solvent” value is recorded as “significantly inhibit; also recorded: obvious inhibitory effects”.
On to `CC(C)(C)O` [tert-butanol], for which the “effect of organic solvent” value (untreated enzyme = 100%) was “activate; also recorded: activation effects”.
As to n-butanol, the “effect of organic solvent” value (untreated enzyme = 100%) is given as “activate; also recorded: activation effects”.
